Reference: patent US7074742B2, “Pyridinyl amides and imides for use as fungicides” (E. I. du Pont de Nemours and Company, priority 2000, dated 2006)
Marks after values point to notes of the source that are not given here.

Legend:
Format in all cases: in vivo
Plasmopara viticola [1] = assay: TEST E: preventive spray on grape seedlings, grape downy mildew, disease rating; conditions: 100 = 100% disease control, 0 = no control, concentration not marked in table
Puccinia recondita = assay: TEST B: preventive spray on wheat seedlings, wheat leaf rust, disease rating; conditions: 100 = 100% disease control, 0 = no control, concentration not marked in table
Pyricularia oryzae = conditions: preventive spray on rice seedlings; 100 = 100% disease control, 0 = no control; concentration not marked in table
[2] = tested on: Erysiphe graminis f. sp. tritici; assay: TEST A: preventive spray on wheat seedlings, wheat powdery mildew, disease rating; conditions: 100 = 100% disease control, 0 = no control relative to controls, concentration not marked in table
Phytophthora infestans [3] = conditions: preventive spray on tomato seedlings; 100 = 100% disease control, 0 = no control; concentration not marked in table
Plasmopara viticola [4] = assay: TEST G: curative spray on inoculated grape seedlings, grape downy mildew, disease rating; conditions: for curative utility: curative (post-infection) use, especially for grape downy mildew, statement in words; for Test G disease control rating (grape downy mildew, curative): curative spray on inoculated grape seedlings
Phytophthora infestans [5] = conditions: curative spray; 100 ppm on potato seedlings
[6] = concentration not marked in table

Which results are given for CC(NC(=O)c1c(Cl)ccnc1Cl)c1ncc(Br)cc1Cl (racemic) [Compound 37]?
Test E disease control rating (grape downy mildew) (Plasmopara viticola [1]): 100%; Test B disease control rating (wheat leaf rust) (Puccinia recondita): 19%; Test C disease control rating (rice blast) (Pyricularia oryzae): 0%; Test A disease control rating (wheat powdery mildew) [2]: 0%; Test D disease control rating (potato and tomato late blight) (Phytophthora infestans [3]): 100%; curative utility (Plasmopara viticola [4]): significant curative utility; Test G disease control rating (grape downy mildew, curative) (Plasmopara viticola [4]; [6]): 100%

What does the source list for Cc1cc(Cl)c(C(=O)NCc2ncc(C(F)(F)F)cc2Cl)c(Cl)n1 [Compound 8, 2,4-Dichloro-N-[[3-chloro-5-(trifluoromethyl)-2-pyridinyl]methyl]-6-methyl-3-pyridinecarboxamide]?
Test E disease control rating (grape downy mildew) (Plasmopara viticola [1]): 100%; Test B disease control rating (wheat leaf rust) (Puccinia recondita): 8%; Test A disease control rating (wheat powdery mildew) [2]: 0%; Test D disease control rating (potato and tomato late blight) (Phytophthora infestans [3]): 100%; curative utility (Plasmopara viticola [4]): significant curative utility; Test G disease control rating (grape downy mildew, curative) (Plasmopara viticola [4]; [6]): 96%

Cc1cnc(Cl)c(C(=O)NCc2ncc(C(F)(F)F)cc2Cl)c1Cl [Compound 29] was tested. Which “Test E disease control rating (grape downy mildew)” value (“Test E disease control rating” below) (Plasmopara viticola [1]) did it give?
The value was 100%.

What about the “Test C disease control rating (rice blast)” value (shortened to “Test C disease control rating”) (Pyricularia oryzae) of the same compound?
Its value is 0%.

What about the “Test D disease control rating (potato and tomato late blight)” value (“Test D disease control rating” for short) (Phytophthora infestans [3]) of the same compound?
Its value is 100%.

And the curative utility (Plasmopara viticola [4])?
Its curative utility is “significant curative utility”.

What about the “Test G disease control rating (grape downy mildew, curative)” value (from here on “Test G disease control rating”) (Plasmopara viticola [4]; 100 ppm) of the same compound?
Its value is 100* %.

Which results are given for O=C(NCc1ncc(C(F)(F)F)cc1Cl)c1c(Cl)ccnc1Cl [Compound 28]?
Test E disease control rating (grape downy mildew) (Plasmopara viticola [1]): 100%; Test F disease control rating (late blight, curative) (Phytophthora infestans [5]): 97# %; Test C disease control rating (rice blast) (Pyricularia oryzae): 0%; Test D disease control rating (potato and tomato late blight) (Phytophthora infestans [3]): 100%; curative utility (Plasmopara viticola [4]): significant curative utility; Test G disease control rating (grape downy mildew, curative) (Plasmopara viticola [4]; 100 ppm): 37* %

For C[C@@H](NC(=O)c1c(Cl)ccnc1Cl)c1ncc(C(F)(F)F)cc1Cl [Compound 31, 2,4-dichloro-N-[(1R)-1-[3-chloro-5-(trifluoromethyl)-2-pyridinyl]ethyl]-3-pyridinecarboxamide], which “Test E disease control rating” value (Plasmopara viticola [1]) is on record?
Its value is 100%.

And the “Test C disease control rating” value (Pyricularia oryzae)?
The value was 0%.

And the “Test D disease control rating” value (Phytophthora infestans [3])?
Its value is 100%.

What about the curative utility (Plasmopara viticola [4]) of the same compound?
Its curative utility is “significant curative utility”.

And the “Test G disease control rating” value (Plasmopara viticola [4]; 20 ppm)?
Its value is 100** %.

What does the source list for CC(NC(=O)c1c(Cl)ccnc1Cl)c1ncc(Cl)cc1Cl (racemic) [Compound 36]?
Test E disease control rating (grape downy mildew) (Plasmopara viticola [1]): 100%; Test B disease control rating (wheat leaf rust) (Puccinia recondita): 38%; Test C disease control rating (rice blast) (Pyricularia oryzae): 0%; Test A disease control rating (wheat powdery mildew) [2]: 0%; Test D disease control rating (potato and tomato late blight) (Phytophthora infestans [3]): 100%; curative utility (Plasmopara viticola [4]): significant curative utility; Test G disease control rating (grape downy mildew, curative) (Plasmopara viticola [4]; [6]): 100%

With CC(NC(=O)c1c(Cl)ccnc1Cl)c1ncc(C(F)(F)F)cc1Cl (racemic) [Compound 30] as the compound, how does the “Test E disease control rating” value (Plasmopara viticola [1]) read?
Its value is 100%.

What about the “Test C disease control rating” value (Pyricularia oryzae) of the same compound?
Its value is 0%.

What about the “Test D disease control rating” value (Phytophthora infestans [3]) of the same compound?
The value was 100%.

What about the curative utility (Plasmopara viticola [4]) of the same compound?
Its curative utility is “significant curative utility”.

What about the “Test G disease control rating” value (Plasmopara viticola [4]; 100 ppm) of the same compound?
Its value is 100* %.
